In PMC7519074, “Polar functional group-containing glycolipid CD1d ligands modulate cytokine-biasing responses and prevent experimental colitis” (Scientific Reports, 2020):
≈ marks a conversion by molar mass, not a printed value.

Experiments:
mCD1d-Fc fusion protein [1] = target: T1, mCD1d-Fc fusion protein (Mus musculus, UniProt P11609); set-up: method as in PMID 27648599; settings: previously reported; cited from earlier work
T1 construct: Ig (mouse immunoglobulin fusion partner); purchased BD Biosciences
T1 sequence (P11609 22-305 limits assumed): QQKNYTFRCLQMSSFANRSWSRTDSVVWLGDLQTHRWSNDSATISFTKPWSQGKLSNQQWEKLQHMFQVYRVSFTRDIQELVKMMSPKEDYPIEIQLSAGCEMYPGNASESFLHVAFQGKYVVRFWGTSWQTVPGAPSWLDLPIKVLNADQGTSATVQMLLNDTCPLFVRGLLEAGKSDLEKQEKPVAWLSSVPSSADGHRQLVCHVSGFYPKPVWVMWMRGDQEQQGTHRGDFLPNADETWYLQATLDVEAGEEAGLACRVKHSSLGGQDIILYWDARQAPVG
T1 sequence (P01887 21-119 partner): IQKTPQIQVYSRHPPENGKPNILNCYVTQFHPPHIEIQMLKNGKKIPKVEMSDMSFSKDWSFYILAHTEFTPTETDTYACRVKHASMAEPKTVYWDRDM

mCD1d-Fc fusion protein [2] = target: T1, mCD1d-Fc fusion protein; test: Antigen presenting cell (APC)-free assay for lipid binding to mCD1d-Fc; IL-2 release by 2E10 NKT hybridoma cells; format: cell-based; set-up: unit not given here; settings: mean ± SEM; for IL-2 production (exact values of IL-2): ligand 10 nM, Fig. 3a, b; for IL-2 production: ligand 100 nM, Fig. 3c, d
Protocol: NKT hybridoma 2E10 cells were cultured in RPMI-1640 (NACALAI TESQUE, INC) supplemented with 10% fetal bovine serum (FBS; Biowest), and 1% penicillin–streptomycin (Gibco).
For this assay, 96-well microplates (Bio-one 96-well cell culture plate, Greiner) were coated with mouse CD1d:Ig Fusion protein (BD Biosciences) (0.25 μg/well) in PBS at 37 °C for 24 h. […] After washing, 2E10 NKT hybridoma cells (2.5 × 10^5 cells/well) were added and cultured at 37 °C for 48 h. IL-2 release was measured with an ELISA kit (Affymetrix).

Water solubility = format: physicochemical
mouse splenocytes = test: Cytokine secretion assay using mouse splenocyte; format: cell-based, C57BL/6 mice; set-up: IFN-γ production / IL-4 production / IL-17A production: unit not given here; settings: for IFN-γ production / IL-4 production / IL-17A production: 48 h; for Relative ratio IL-4/IFN-γ of cytokine production compared to α-GalCer / Relative ratio IL-17A/IFN-γ of cytokine production compared to α-GalCer: 1 nM; for Relative ratio IL-4/IFN-γ of cytokine production compared to α-GalCer: Fig. 5a; for Relative ratio IL-17A/IFN-γ of cytokine production compared to α-GalCer: Fig. 5b; for cytokine polarization in words: from relative ratios, Fig. 5
Protocol: Spleen cell suspensions (from C57BL/6 mice) were prepared in complete medium (RPMI 1,640 media supplemented with 10% FBS and 1% penicillin–streptomycin) and seeded into 96-well plates (6.0 × 10^5 cells/well). Lipid ligands were added, and the mixture were incubated at 37 °C for 48 h. IFN-γ, IL-4 and IL-17A release were measured with an ELISA kit (Affymetrix).

[3] = Metabolic stability, rat liver microsome; format: in vitro ADME; settings: for half-life: liver microsomes, read-out: metabolic stability (liver microsome, T1/2) rat
[4] = Metabolic stability, human liver microsome; format: in vitro ADME; settings: for half-life: liver microsomes, read-out: metabolic stability (liver microsome, T1/2) human
[5] = Table S1, dash = below the detection limit (< 5 μM) according to b25

CCCCCCCCCCCCCC[C@@H](O)[C@@H](O)[C@H](CO[C@H]1O[C@H](CO)[C@H](O)[C@H](O)[C@H]1O)NC(=O)CCCCCCCCCCCNC(=O)CCCCCCCCCCCC [1a]
cytokine production / agonistic activity relative to α-GalCer, in words (mCD1d-Fc fusion protein [1]): higher levels of cytokine production relative to that caused by α-GalCer | IL-2 production (exact values of IL-2) (mCD1d-Fc fusion protein [2]): 177 ± 27 | IL-2 production (mCD1d-Fc fusion protein [2]): 2,502 ± 114 | solubility (Water solubility; [5]): < 5 µM | IFN-γ production (mouse splenocytes; 1 nM ligand, Fig. 4a): 16,907 ± 3,679 | IL-4 production (mouse splenocytes; 1 nM ligand, Fig. 4b): 247 ± 19 | IFN-γ production (mouse splenocytes; 1 nM ligand, Fig. S2a): 9,152 ± 373 | IL-4 production (mouse splenocytes; 1 nM ligand, Fig. S2b): 232 ± 41 | IL-17A production (mouse splenocytes; 1 nM ligand, Fig. S2c): 1,276 ± 60 | Relative ratio IL-4/IFN-γ of cytokine production compared to α-GalCer (mouse splenocytes): 1.27 ± 0.23 | Relative ratio IL-17A/IFN-γ of cytokine production compared to α-GalCer (mouse splenocytes): 0.76 ± 0.06 | cytokine polarization in words (mouse splenocytes): relatively less selective cytokine responses | metabolic stability in words [3]: good metabolic stability | half-life [3]: 47 min | metabolic stability in words [4]: good metabolic stability | half-life [4]: 60 min

CCCCCCCCCCCCCC[C@@H](O)[C@@H](O)[C@H](CO[C@H]1O[C@H](CO)[C@H](O)[C@H](O)[C@H]1O)NC(=O)CCCCCCCCCCCNC(=O)CCCCCC [1b]
cytokine production / agonistic activity relative to α-GalCer, in words (mCD1d-Fc fusion protein [1]): higher levels of cytokine production relative to that caused by α-GalCer | IL-2 production (exact values of IL-2) (mCD1d-Fc fusion protein [2]): 662 ± 46 | solubility (Water solubility; detection limit 5 μM): 5 µM (≈ 3.95 µg/mL) | IFN-γ production (mouse splenocytes; 1 nM ligand, Fig. S2a): 822 ± 11 | IL-17A production (mouse splenocytes; 1 nM ligand, Fig. S2c): 976 ± 207 | Relative ratio IL-4/IFN-γ of cytokine production compared to α-GalCer (mouse splenocytes): 5.04 ± 0.90 | Relative ratio IL-17A/IFN-γ of cytokine production compared to α-GalCer (mouse splenocytes): 6.43 ± 1.27 | cytokine polarization in words (mouse splenocytes): IL-4- and IL-17A-biasing properties | metabolic stability in words [3]: good metabolic stability | half-life [3]: > 200 min | metabolic stability in words [4]: good metabolic stability | half-life [4]: > 200 min

CCCCCCCCCCCCCC[C@@H](O)[C@@H](O)[C@H](CO[C@H]1O[C@H](CO)[C@H](O)[C@H](O)[C@H]1O)NC(=O)CCCCCCCCCCCN(C)C(=O)CCCCCCCCCCCC [4a]
IL-2 production (exact values of IL-2) (mCD1d-Fc fusion protein [2]): 749 ± 92 | solubility (Water solubility; [5]): < 5 µM | IFN-γ production (mouse splenocytes; 1 nM ligand, Fig. 4a): 39,159 ± 4,960 | IL-4 production (mouse splenocytes; 1 nM ligand, Fig. 4b): 599 ± 13 | metabolic stability in words [3]: metabolized more rapidly | half-life [3]: 23 min | metabolic stability in words [4]: metabolized more rapidly | half-life [4]: 15 min

CCCCCCCCCCCCCC[C@@H](O)[C@@H](O)[C@H](CO[C@H]1O[C@H](CO)[C@H](O)[C@H](O)[C@H]1O)NC(=O)CCCCCCCCCCCN(C)C(=O)CCCCCC [4b]
IL-2 production (exact values of IL-2) (mCD1d-Fc fusion protein [2]): 546 ± 87 | IL-4 production (mouse splenocytes; 10 nM ligand, Fig. 4e): 743 ± 11 | IL-17A production (mouse splenocytes; 10 nM ligand, Fig. 4f): 2095 ± 190 | IFN-γ production (mouse splenocytes; 10 nM ligand, Fig. 4d): 17,753 ± 542

CCCCCCCCCCCCCC[C@@H](O)[C@@H](O)[C@H](CO[C@H]1O[C@H](CO)[C@H](O)[C@H](O)[C@H]1O)NC(=O)CCCCCCCCCCCNC(=O)NCCCCCCCCCCC [5a]
IL-2 production (exact values of IL-2) (mCD1d-Fc fusion protein [2]): 85 ± 26

CCCCCCCCCCCCCC[C@@H](O)[C@@H](O)[C@H](CO[C@H]1O[C@H](CO)[C@H](O)[C@H](O)[C@H]1O)NC(=O)CCCCCCCCCCCNC(=O)NCCCCC [5b]
IL-2 production (exact values of IL-2) (mCD1d-Fc fusion protein [2]): 376 ± 92 | IL-4 production (mouse splenocytes; 10 nM ligand, Fig. 4e): 723 ± 73 | IL-17A production (mouse splenocytes; 10 nM ligand, Fig. 4f): 1774 ± 278 | IFN-γ production (mouse splenocytes; 10 nM ligand, Fig. 4d): 10,799 ± 950

CCCCCCCCCCCCCC[C@@H](O)[C@@H](O)[C@H](CO[C@H]1O[C@H](CO)[C@H](O)[C@H](O)[C@H]1O)NC(=O)CCCCCCCCCCCNCCCCCCCCCCCCC [6a]
IL-2 production (exact values of IL-2) (mCD1d-Fc fusion protein [2]): 323 ± 41 | solubility (Water solubility; [5]): < 5 µM | IFN-γ production (mouse splenocytes; 1 nM ligand, Fig. 4a): 8,515 ± 1,016 | IL-4 production (mouse splenocytes; 1 nM ligand, Fig. 4b): 286 ± 12 | metabolic stability in words [3]: good metabolic stability | half-life [3]: > 200 min | metabolic stability in words [4]: good metabolic stability | half-life [4]: > 200 min

CCCCCCCCCCCCCC[C@@H](O)[C@@H](O)[C@H](CO[C@H]1O[C@H](CO)[C@H](O)[C@H](O)[C@H]1O)NC(=O)CCCCCCCCCCCNCCCCCCC [6b]
IL-2 production (exact values of IL-2) (mCD1d-Fc fusion protein [2]): 74 ± 26 | Relative ratio IL-4/IFN-γ of cytokine production compared to α-GalCer (mouse splenocytes): 18.3 ± 6.8 | Relative ratio IL-17A/IFN-γ of cytokine production compared to α-GalCer (mouse splenocytes): 66.7 ± 27.4 | IL-4 production (mouse splenocytes; 10 nM ligand, Fig. 4e): 513 ± 11 | IL-17A production (mouse splenocytes; 10 nM ligand, Fig. 4f): 990 ± 101 | IFN-γ production (mouse splenocytes; 10 nM ligand, Fig. 4d): 3,764 ± 450 | cytokine polarization in words (mouse splenocytes): IL-4- and IL-17A-biasing properties

CCCCCCCCCCCCCC[C@@H](O)[C@@H](O)[C@H](CO[C@H]1O[C@H](CO)[C@H](O)[C@H](O)[C@H]1O)NC(=O)CCCCCCCCCCCCC(=O)CCCCCCCCCCCC [7a]
IL-2 production (exact values of IL-2) (mCD1d-Fc fusion protein [2]): 424 ± 32

CCCCCCCCCCCCCC[C@@H](O)[C@@H](O)[C@H](CO[C@H]1O[C@H](CO)[C@H](O)[C@H](O)[C@H]1O)NC(=O)CCCCCCCCCCCCC(=O)CCCCCC [7b]
IL-2 production (exact values of IL-2) (mCD1d-Fc fusion protein [2]): 600 ± 20 | Relative ratio IL-4/IFN-γ of cytokine production compared to α-GalCer (mouse splenocytes): 12.7 ± 4.0 | Relative ratio IL-17A/IFN-γ of cytokine production compared to α-GalCer (mouse splenocytes): 48.6 ± 15.6 | IL-4 production (mouse splenocytes; 10 nM ligand, Fig. 4e): 448 ± 40 | IL-17A production (mouse splenocytes; 10 nM ligand, Fig. 4f): 656 ± 69 | IFN-γ production (mouse splenocytes; 10 nM ligand, Fig. 4d): 4,276 ± 261 | cytokine polarization in words (mouse splenocytes): IL-4- and IL-17A-biasing properties

CCCCCCCCCCCC/C=C/CCCCCCCCCCCC(=O)N[C@@H](CO[C@H]1O[C@H](CO)[C@H](O)[C@H](O)[C@H]1O)[C@H](O)[C@H](O)CCCCCCCCCCCCCC [8a]
IL-2 production (mCD1d-Fc fusion protein [2]): 1626 ± 371

CCCCCC/C=C/CCCCCCCCCCCC(=O)N[C@@H](CO[C@H]1O[C@H](CO)[C@H](O)[C@H](O)[C@H]1O)[C@H](O)[C@H](O)CCCCCCCCCCCCCC [8b]
IL-2 production (mCD1d-Fc fusion protein [2]): 334 ± 19

CCCCCCCCCCCC/C=C\CCCCCCCCCCCC(=O)N[C@@H](CO[C@H]1O[C@H](CO)[C@H](O)[C@H](O)[C@H]1O)[C@H](O)[C@H](O)CCCCCCCCCCCCCC [9a]
IL-2 production (mCD1d-Fc fusion protein [2]): 1556 ± 91

CCCCCC/C=C\CCCCCCCCCCCC(=O)N[C@@H](CO[C@H]1O[C@H](CO)[C@H](O)[C@H](O)[C@H]1O)[C@H](O)[C@H](O)CCCCCCCCCCCCCC [9b]
IL-2 production (mCD1d-Fc fusion protein [2]): 925 ± 57

CCCCCCCCCCCCCCCCCCCC(=O)N[C@@H](CO[C@H]1O[C@H](CO)[C@H](O)[C@H](O)[C@H]1O)[C@H](O)[C@H](O)CCCCCCCCCCCCCC [C20:0-α-GalCer, reference compound]
IL-4 production (mouse splenocytes; 10 nM ligand, Fig. 4e): 85 ± 52 | IL-17A production (mouse splenocytes; 10 nM ligand, Fig. 4f): 696 ± 38 | IFN-γ production (mouse splenocytes; 10 nM ligand, Fig. 4d): 1,353 ± 731
